From article PMC9655037, “Alternation of Organ-Specific Exposure in LPS-Induced Pneumonia Mice after the Inhalation of Tetrandrine Is Governed by Metabolizing Enzyme Suppression and Lysosomal Trapping” (International Journal of Molecular Sciences, 2022)
Where “and” joins values, the source holds several entries; their conditions need not be identical. Equal values may be shown once. Read-outs that look alike come from different tables or passages of the source.

What was measured:
[1] = Metabolic stability of TET in NADPH-supplemented liver microsomes from normal and LPS-induced ALI mice; assay type: in vitro ADME, mouse; conditions: for half-life at 1 µM: mouse, microsomes, 1.0 µM TET, 0.5 mg/mL protein, 37 °C, read-out: In vitro t1/2
Method: Liver and pulmonary microsomes from normal and LPS-induced pulmonary infected mice were isolated according to the conventional differential centrifugation approach. In brief, six normal mice and six acute pneumonia mice (48 h after i.t. administration of LPS) were sacrificed. Lungs and livers were harvested and rinsed with ice NS. The tissues were weighed and homogenized with 50 mM Tris buffer solution (TBS, m:v = 1:3). The prepared homogenate was then immediately centrifuged at 10,000× g at 4 °C for 20 min. The resulting supernatant was further centrifuged at 105,000× g at 4 °C for 60 min to yield mouse liver microsomes (MLM) and mouse pulmonary microsomes (MPM). The sediment was resuspended with storage buffer (50 mM TBS containing 0.25 M sucrose and 20% glycerol) and stored at −80 °C immediately. The protein content of the harvested microsomes was measured following the BCA protein assay protocol.
TET (1 μM, 1% acetonitrile) was incubated in normal or pneumonia mice liver microsomes or pulmonary microsomes (0.5 mg/mL) diluted with 100 mM PBS (pH 7.4) containing MgCl2 (3 mM). After preincubation of 5 min, the reaction was initiated by adding NADPH (final concentration of 1 mM) at 37 °C. Periodic aliquots of the incubation mixture at 0, 15, 30, and 45 min were removed, and the protein was precipitated with ice-cold acetonitrile containing IS. After centrifugation, the supernatant was collected and analyzed for the depletion of TET by LC-MS/MS.
The in vitro t1/2 in mouse liver microsomal incubation was calculated from the semi-log plot of percentage remaining vs. incubation time and intrinsic clearance (CLint,app mL/min/mg protein) was calculated as Equation (2).
(3) CLint,scaled=CLint,app×45mg microsomes/g liver×g liver/kg body weight (4) CLh,blood=Q×fu,p/Rb/p×CLint/fu,mic/Q+CLint·fu,p/Rb·CLint/fu,mic

OATP1B3 = molecular target: T1, OATP1B3 (Homo sapiens, UniProt Q9NPD5); assay: Uptake by OATP1B3-expressing HEK293 cells; conditions: human, 5 min
T1 sequence (Q9NPD5 1-702): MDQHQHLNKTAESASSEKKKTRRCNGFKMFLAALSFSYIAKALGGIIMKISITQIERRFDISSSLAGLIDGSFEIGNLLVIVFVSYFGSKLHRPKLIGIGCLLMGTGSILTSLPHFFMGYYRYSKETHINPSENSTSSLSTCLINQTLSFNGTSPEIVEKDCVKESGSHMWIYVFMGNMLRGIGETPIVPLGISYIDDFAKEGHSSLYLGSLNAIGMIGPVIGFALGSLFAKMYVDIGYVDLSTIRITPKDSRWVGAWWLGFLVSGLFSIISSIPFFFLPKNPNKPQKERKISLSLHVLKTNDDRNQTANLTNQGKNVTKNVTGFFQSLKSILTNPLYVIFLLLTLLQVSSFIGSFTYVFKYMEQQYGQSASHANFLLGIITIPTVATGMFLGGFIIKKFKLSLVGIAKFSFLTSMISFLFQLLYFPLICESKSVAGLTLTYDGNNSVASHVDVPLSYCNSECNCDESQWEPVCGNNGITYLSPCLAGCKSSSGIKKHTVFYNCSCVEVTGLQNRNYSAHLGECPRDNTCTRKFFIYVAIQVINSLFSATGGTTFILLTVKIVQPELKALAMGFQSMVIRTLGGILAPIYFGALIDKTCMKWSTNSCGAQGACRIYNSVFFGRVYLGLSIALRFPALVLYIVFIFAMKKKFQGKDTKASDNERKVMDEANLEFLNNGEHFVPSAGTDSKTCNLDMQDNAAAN
Method: (§1) Expressing OATP1B1/OATP1B3 or MOCK HEK293 cells were utilized to evaluate whether TET is a substrate of these two SLC transporters. Cell culture was performed as mentioned above. Cells were seeded on 96-well plates at the density of 0.8 × 10^5 cells/well. The culture medium was replaced with a medium containing 5 mM sodium butyrate for 24 h before the transport study to enhance the expression of transporters. For the transport assay, the DMEM media were removed and the cells were washed with pre-warmed Krebs–Henseleit buffer twice (0.1 mL/well). The second washing buffer was kept in the wells and the plate was incubated at 37 °C for 5 min before the uptake assay was initiated. […] The incubation solution was removed and the cells were washed with ice-cold transportation buffer three times (0.1 mL/well). A total of 0.1 mL pure water was added to each well to lyse the cells by repeated freezing and thawing (−196 °C–37 °C, three times). The cell lysate was collected and stored at −40 °C for LC-MS/MS analysis and protein measurement.
In the uptake study of TET by OATP1B1 and OATP1B3 expressing the HEK293 cell line, the uptake clearance (U) of the substrate was calculated according to Equation (5), the transporter-mediated uptake ratio (UR) was calculated by dividing the uptake clearance from transporter-expressing cells to that from the mock cells according to Equation (6), and the inhibition ratio (IR) was calculated according to Equation (7), where p represents the protein content and T is the duration of the incubation time. (5) U=Clysate/p×T (6) UR=U/UMOCK (7) IR=(1−Uwith inhibitor−Umock with inhibitor/Uwithout inhibitor−Umock without inhibitor)×100

OATP1B1 = molecular target: T2, OATP1B1 (Homo sapiens, UniProt Q9Y6L6); conditions: 5 min, 5 µM
T2 sequence (Q9Y6L6 1-691): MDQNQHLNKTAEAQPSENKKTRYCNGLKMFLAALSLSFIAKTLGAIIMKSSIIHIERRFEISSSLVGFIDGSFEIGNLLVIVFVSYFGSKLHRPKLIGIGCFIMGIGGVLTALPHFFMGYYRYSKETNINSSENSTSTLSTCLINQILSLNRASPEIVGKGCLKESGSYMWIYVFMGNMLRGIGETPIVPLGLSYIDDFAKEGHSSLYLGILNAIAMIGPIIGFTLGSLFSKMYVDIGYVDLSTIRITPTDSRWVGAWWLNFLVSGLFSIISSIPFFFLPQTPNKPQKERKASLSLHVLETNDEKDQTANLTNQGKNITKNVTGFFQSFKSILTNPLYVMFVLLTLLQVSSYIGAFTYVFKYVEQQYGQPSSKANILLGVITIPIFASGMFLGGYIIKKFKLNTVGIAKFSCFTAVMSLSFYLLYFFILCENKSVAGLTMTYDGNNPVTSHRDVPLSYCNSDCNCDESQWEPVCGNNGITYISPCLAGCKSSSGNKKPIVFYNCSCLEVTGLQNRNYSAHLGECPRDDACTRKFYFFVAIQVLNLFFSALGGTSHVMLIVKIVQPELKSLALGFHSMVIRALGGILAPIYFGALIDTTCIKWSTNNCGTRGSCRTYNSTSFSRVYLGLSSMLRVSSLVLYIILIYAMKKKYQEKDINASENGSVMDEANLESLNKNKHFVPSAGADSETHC
Method: as §1, with “A total of 0.1 mL pure water was added to each well to lyse the cells by repeated freezing and thawing (−196 °C–37 °C, three times). The cell lysate was collected and stored at −40 °C for LC-MS/MS analysis and protein measurement.” left out
In the uptake study of TET by OATP1B1 and OATP1B3 expressing the HEK293 cell line, the uptake clearance (U) of the substrate was calculated according to Equation (5), the transporter-mediated uptake ratio (UR) was calculated by dividing the uptake clearance from transporter-expressing cells to that from the mock cells according to Equation (6), and the inhibition ratio (IR) was calculated according to Equation (7), where p represents the protein content and T is the duration of the incubation time. […]

With `COc1ccc2cc1Oc1ccc(cc1)C[C@H]1c3cc(c(OC)cc3CCN1C)Oc1c(OC)c(OC)cc3c1[C@H](C2)N(C)CC3` [TET, Tetrandrine] the “CLhep,blood (hepatic clearance, well-stirred model)” value ([1]; LPS-treated mice liver microsomes) was 0.089 L/h/kg and 0.089 ± 0.000814 L/h/kg, the half-life at 1 µM ([1]; pH 7.4, LPS-treated mice liver microsomes) was 1.4 ± 0.013 h and the half-life at 1 µM ([1]; pH 7.4, normal mice liver microsomes) was 0.88 ± 0.0292 h. The “CLhep,blood (hepatic clearance, well-stirred model)” value ([1]; normal mice liver microsomes) was 0.14 L/h/kg and 0.14 ± 0.0045 L/h/kg, the “Inhibition Ratio” value (OATP1B3; 5 µM) was 20.6 and the “Uptake Clearance” value (OATP1B3; 5 µM) was 120 ± 8.61 nM/min/mg Protein. For the same compound, the “Uptake Ratio” value (OATP1B3; 5 µM) was 1.01, the “Uptake Clearance” value (OATP1B3; 5 μM) was 151 ± 25.5 nM/min/mg Protein and the “Inhibition Ratio” value (OATP1B1) was 11.1. The “Uptake Ratio” value (OATP1B1) was 1.2.
